Where a name gives a salt, the structure may show the parent alone.
Columns and labels:
[1] = tested on: phosphorylase; assay: Cerebral phosphorylase after cold injury (freezing lesion cerebral edema); format: in vivo; conditions: rats
Experimental: (§1) Cerebral edema was induced in rats by a freezing lesion (dry ice) made on the exposed dura of unilateral hemisphere. Edema was measured by the increase in water content of gray and white matter, the increase in phosphorylase activity and the decrease in Na^+, K^+ - ATPase activity of the injured brain. 1-(3'-Pyridyl)-3-(2'-hydroxyethyl)thiourea HCl was given 1 hour before and 24 hours after, and the animals were killed by decapitation 48 hours after the lesion treatment.

[2] = tested on: Na^+, K^+ - ATPase; assay: Cerebral Na^+, K^+ - ATPase after cold injury (freezing lesion cerebral edema); format: in vivo; conditions: rats
Experimental: as §1

[3] = Acute toxicity; format: in vivo; conditions: for LD50: mouse, in vivo, dd-strain male mice
Experimental: Acute toxicity of 1-(3'-pyridyl)-3-(2'-hydroxyethyl)thiourea hydrochloride was determined in dd-strain male mice.

[4] = Hypoxia test (rat), KCN, survival time; format: in vivo, rats (wister-strain); conditions: KCN 10 mg/kg i.p.
[5] = Cerebral water content after cold injury (freezing lesion cerebral edema); format: in vivo; conditions: rats
Experimental: as §1

[6] = Hypoxia test (mouse), normal pressure, survival time; format: in vivo, male mice (dd-strain); conditions: 1.5 % O2 + 98.5 % N2
Experimental: Male mice (dd-strain) and rats (wister-strain) were taken to a closed room which was filled with a gas mixture consisting of 1.5 % oxygen and 98.5 % nitrogen, or was conditioned in reduced atmospheric pressure (145 mmHg). In the other hand, mice and rats were given sodium cyanide (10 mg/kg, i.p.). These animals died after a few minutes in such conditions. 1-(3'-Pyridyl)-3-(2'-hydroxyethyl)thiourea HCl was given 1 hour before these hypoxia tests.
In the Tables data mean the increase percent of the survival time to that of control.

SMILES: OCCNC(=S)Nc1cccnc1 [1-(3'-pyridyl)-3-(2'-hydroxyethyl)thiourea hydrochloride]
- Phosphorylase A/T × 100 (Active phosphorylase/Total phosphorylase) ([1]; 100 mg/kg p.o.): 68.5 ± 2.5
- Phosphorylase, Active ([1]; 100 mg/kg p.o.): 0.242 ± 0.019 units/g
- Phosphorylase A/T × 100 (Active phosphorylase/Total phosphorylase) ([1]; 300 mg/kg p.o.): 66.4 ± 2.7
- Phosphorylase, Active ([1]; 300 mg/kg p.o.): 0.220 ± 0.057 units/g
- effect on the increase in phosphorylase activity ([1]; 300 mg/kg p.o.): protective effect
- ATPase ([2]; 100 mg/kg p.o.): 1.180 ± 0.094 μ moles Pi/g/hr
- ATPase ([2]; 300 mg/kg p.o.): 1.226 ± 0.080 μ moles Pi/g/hr
- effect on the decrease in Na^+, K^+ - ATPase activity ([2]; 300 mg/kg p.o.): protective effect
- acute lethal toxic symptoms ([3]; dose of LD50 or more): sedation and paralysis
- LD50 ([3]; iv): 640 mg/kg
- LD50 ([3]; po): > 2000 mg/kg
- LD50 ([3]; sc): 1350 mg/kg
- increase percent of the survival time to that of control ([4]; 30 mg/kg i.v.): 174%
- increase percent of the survival time to that of control ([4]; 30 mg/kg p.o.): 45%
- increase percent of the survival time to that of control ([4]; 100 mg/kg p.o.): 116%
- increase percent of the survival time to that of control ([4]; 100 mg/kg s.c.): 169%
- increase percent of the survival time to that of control ([4]; 300 mg/kg p.o.): 187%
- H2O, Gray matter ([5]; 100 mg/kg p.o.): 81.5%
- H2O, White matter ([5]; 100 mg/kg p.o.): 80.3%
- effect on the increase in water content ([5]; 300 mg/kg p.o.): protective effect
- H2O, Gray matter ([5]; 300 mg/kg p.o.): 79.7%
- H2O, White matter ([5]; 300 mg/kg p.o.): 79.5%
- increase percent of the survival time to that of control ([6]; 30 mg/kg i.v.): 164%
- increase percent of the survival time to that of control ([6]; 30 mg/kg p.o.): 105%
- increase percent of the survival time to that of control ([6]; 100 mg/kg p.o.): 165%
- increase percent of the survival time to that of control ([6]; 100 mg/kg s.c.): 147%
- increase percent of the survival time to that of control ([6]; 300 mg/kg p.o.): 231%

Source: patent publication US3992391A, “1,3-Disubstituted thiourea compounds and preparation thereof” (priority 1972, dated 1976)
